Data published in patent US20060093596A1, “Genomic approach to identification of novel broad-spectrum antimicrobial peptides from bony fish” (priority 2002, published 2006).
Entries after “also recorded” stand apart in the source; their conditions may differ. Where no end group is shown, it is not given here.

Assays:
Vibrio anguillarum = settings: Coho salmon; Jia et al. 2000; cited from earlier work
[1] = system: Escherichia coli C786, CGSC4908; type: cell-based; settings: lowest peptide concentration inhibiting growth by at least 50%; supplemented Mueller-Hinton broth
Experimental: All strains were stored at −70° C. until they were thawed for use and sub-cultured daily.
Escherichia coli strain CGSC 4908 (his-67, thyA43, pyr-37), auxotrophic for thymidine, uridine, and L-histidine (Cohen et al., 1963) was kindly supplied, free of charge, by the E.coli Genetic Stock Centre (Yale University, New Haven, Conn.). MHB supplemented with 5 mg/L thymidine, 10 mg/L uridine and 20 mg/L L-histidine (Sigma Chemical Co., St. Louis, Mo.), was used to grow E.coli CGSC 4908 unless otherwise specified.
The activities of the antimicrobial peptides were determined as minimal inhibitory concentrations (MICs) using the microtitre broth dilution method of Amsterdam (Amsterdam, 1996), as modified by Wu and Hancock (1999). Serial dilutions of the peptide were made in water in 96-well polypropylene (Costar, Coming Incorporated, Coming, New York) microtiter plates. Bacteria or C. albicans were grown overnight to mid-logarithmic phase as described above, and diluted to give a final inoculum size of 10^6 cfu/ml. A suspension of bacteria or yeast was added to each well of a 96 well plate and incubated overnight at the appropriate temperature. In the case of E. coli CGSC 4908, supplemented MHB was used. […] Three repeats of each MIC determination were performed.

[2] = system: Salmonella enterica s. Typhimurium MS4252S (C610, supersusceptible strain); type: cell-based; settings: lowest peptide concentration inhibiting growth by at least 50%; Mueller-Hinton broth
Experimental: (§3) Most non-fish bacterial strains as well as Candida albicans were grown at 37° C. in Mueller-Hinton Broth (MHB; Difco Laboratories, Detroit), while the fish bacteria were maintained at 16° C. in Tryptic Soy Broth (TSB; Difco, 5g/l NaCl). All strains were stored at −70° C. until they were thawed for use and sub-cultured daily. The following strains, Pseudomonas aeruginosa K799 (parent of Z61), Pseudomonas aeruginosa Z61 (antibiotic supersusceptible), Salmonella typhimurium 14028s (parent of MS7953s), Salmonella typhimurium MS7953s (defensin supersusceptible), as well as Staphylococcus epidermidis (human clinical isolates) and methicillin-resistant Staphylococcus aureus (MRSA; isolated by Dr. A. Chow, University of British Columbia) have been kindly donated by Prof R. E. W. Hancock, University of British Columbia.
(§4) The activities of the antimicrobial peptides were determined as minimal inhibitory concentrations (MICs) using the microtitre broth dilution method of Amsterdam (Amsterdam, 1996), as modified by Wu and Hancock (1999). Serial dilutions of the peptide were made in water in 96-well polypropylene (Costar, Coming Incorporated, Coming, New York) microtiter plates. Bacteria or C. albicans were grown overnight to mid-logarithmic phase as described above, and diluted to give a final inoculum size of 10^6 cfu/ml. A suspension of bacteria or yeast was added to each well of a 96 well plate and incubated overnight at the appropriate temperature. […] Three repeats of each MIC determination were performed.

[3] = system: Pseudomonas aeruginosa K799 (H187); type: cell-based; settings: for Minimal inhibitory concentration, P. aeru K799: lowest peptide concentration inhibiting growth by at least 50%, Mueller-Hinton broth
Experimental: as §3, §4

P. aeruginosa K799 = experiment: Killing assay in culture supplemented with NaCl; type: cell-based, Pseudomonas aeruginosa; settings: culture supplemented with 150 mM NaCl; 4 μg/ml (MIC) or 40 μg/ml (10×MIC); FIG. 25
Experimental: (§1) Survival of bacteria and C. albicans upon exposure to selected peptides applied at their minimal inhibitory concentrations (MICs) and ten times their MICs was measured using standard methodology. The test organisms were grown in MHB and exposed to the peptides. At the specified time intervals equal aliquots were removed from the cultures, plated on MHB plates, and the resulting colonies were counted. Percentage survival was plotted against time on a logarithmic scale. Two repeats of each experiment were performed.
Peptides of the invention can be used at a range of pH's, salt concentrations, and temperatures. These peptides are useful against pathogens grown in biofilms or under any other conditions for pathogen growth or culture. See for example FIG. 25 in which the ability of NRC-13 to kill P. aeruginosa K799 in […] is shown. NRC-13 was added to a culture of P. aeruginosa supplemented with 150 mM NaCl to a final concentration of 4 μg/ml (□) or 40 μg/ml (Δ), representing the MIC and 10×MIC, respectively. A control with no peptide added is also shown (♦).

[4] = system: Aeromonas salmonicida 97-4
Experimental: (§5) Most non-fish bacterial strains as well as Candida albicans were grown at 37° C. in Mueller-Hinton Broth (MHB; Difco Laboratories, Detroit), while the fish bacteria were maintained at 16° C. in Tryptic Soy Broth (TSB; Difco, 5g/l NaCl).
(§6) Two field isolates of the salmonid pathogen Aeromonas salmonicida are from the IMB strain collection.
as §4

[5] = system: Staphylococcus epidermidis C621 (clinical isolate)
Experimental: as §3, §4

[6] = system: Escherichia coli DC2 (C500, outer membrane-permeable mutant); type: cell-based; settings: lowest peptide concentration inhibiting growth by at least 50%; Mueller-Hinton broth
Experimental: as §3, §4

[7] = system: bacterial pathogens and C. albicans; experiment: Spectrum of antimicrobial activity (MIC panel, overall); type: cell-based; settings: summary of MIC results against bacteria and C. albicans
Experimental: Three repeats of each MIC determination were performed.
The minimal inhibitory concentrations of the chemically produced peptides against a wide range of baterial pathogens and C. albicans were determined and are shown in Table 9.

[8] = system: Candida albicans C627, CALB105; settings: for Minimal inhibitory concentration, C. alb C627: C627, CALB105
Experimental: as §3, §4

[9] = system: Salmonella enterica s. Typhimurium 14028S (C587); type: cell-based; settings: lowest peptide concentration inhibiting growth by at least 50%; Mueller-Hinton broth
Experimental: as §3, §4

[10] = system: Pseudomonas aeruginosa Z61 (H188, supersusceptible strain); type: cell-based; settings: for Minimal inhibitory concentration, P. aeru Z61: lowest peptide concentration inhibiting growth by at least 50%, Mueller-Hinton broth
Experimental: as §3, §4

Pseudomonas aeruginosa = experiment: Killing assay (survival at MIC and ten times MIC); type: cell-based
Experimental: as §1
(§2) FIG. 14 describes Survival of a Gram-negative bacterium (Pseudomonas aeruginosa) upon exposure to NRC-13 at its minimal inhibitory concentration (MIC) and ten times its MIC. P. aeruginosa was grown in Mueller-Hinton broth and exposed to NRC-13 at its MIC and ten times its MIC. At the specified intervals equal aliquots were removed from the culture, plated on MHB plates, and the resulting colonies were counted.

[11] = system: Escherichia coli UB1005 (C498); type: cell-based; settings: lowest peptide concentration inhibiting growth by at least 50%; Mueller-Hinton broth
Experimental: as §3, §4

[12] = system: methicillin-resistant Staphylococcus aureus (MRSA) C623, SAP017; settings: for Minimal inhibitory concentration, MRSA C623: methicillin-resistant C623, SAP017
Experimental: as §3, §4

[13] = system: Aeromonas salmonicida 99-1, A449
Experimental: as §5, §6, §4

Candida albicans = experiment: Killing assay (survival at MIC and ten times MIC); type: cell-based; settings: Mueller-Hinton broth, FIG. 15
Experimental: as §1
as §2, with “15” for “14”, “yeast (Candida albicans)” for “Gram-negative bacterium (Pseudomonas aeruginosa)”, “NRC-12” for “NRC-13”, “C. albicans” for “P. aeruginosa”

[14] = system: methicillin-resistant Staphylococcus aureus (MRSA); experiment: Killing assay (survival at MIC and ten times MIC); type: cell-based; settings: Mueller-Hinton broth, FIG. 13
Experimental: as §1
as §2, with “13” for “14”, “Gram-positive” for “Gram-negative”, “(methicillin-resistant Staphylococcus aureus—MRSA)” for “(Pseudomonas aeruginosa)”, “NRC-15” for “NRC-13”, “S. aureus” for “P. aeruginosa”

Row | Substance | Minimal inhibitory concentration, E. coli C786 [1] [µg/mL] | Minimal inhibitory concentration, S. typh MS4252s [2] [µg/mL] | Minimal inhibitory concentration, A. sal 97-4 [4] [µg/mL] | Minimal inhibitory concentration, S. epi C621 [5] [µg/mL] | Minimal inhibitory concentration, E. coli DC2 [6] [µg/mL] | antimicrobial activity, overall (in words) [7] | Minimal inhibitory concentration, C. alb C627 [8] [µg/mL] | Minimal inhibitory concentration, S. typh 14028s [9] [µg/mL] | Minimal inhibitory concentration, P. aeru Z61 [10] [µg/mL] | Minimal inhibitory concentration, E. coli UB1005 [11] [µg/mL] | concentration inhibiting the growth of methicillin-resistant S. aureus [12] [µg/mL] | Minimal inhibitory concentration, MRSA C623 [12] [µg/mL] | Minimal inhibitory concentration, A. sal 99-1 [13] [µg/mL] | Minimal inhibitory concentration, P. aeru K799 [3] [µg/mL] | other results
1 | pleurocidin (GWGSFFKKAAHVGKHVGKAALTHYL-NH2; UniProt P81941 23-47, looked up) [Synthetic pleurocidin, Synthetic pleurocidin identical to the central portion of WF2 (Jia et al. 2000)] | – | – | – | – | – | – | – | – | – | – | – | – | – | – | protection against infection by Vibrio anguillarum (Vibrio anguillarum): protect Coho salmon against infection
2 | GWRTLLKKAEVKTVGKLALKHYL-NH2 [NRC-13] | 2 | 2 | 2 | 4 | 2 | broad spectrum of antimicrobial activity; also recorded: highly active | 4 | 8 | 1 | 4 | 4 | 4 | 4 | – | MIC against P. aeruginosa K799 ([3]; text statement to FIG. 25): 4 µg/mL; ability to kill P. aeruginosa K799 in NaCl (P. aeruginosa K799): kill; concentration inhibiting the growth of A. salmonicida ([4]; strain not stated, value matches 97-4 of Table 8): 2 µg/mL; concentration inhibiting the growth of C. albicans [8]: 4 µg/mL; concentration inhibiting the growth of P. aeruginosa ([10]; strain not stated, value matches Z61 of Table 8): 1 µg/mL; ability to kill P. aeruginosa (Pseudomonas aeruginosa; at MIC and ten times MIC, Mueller-Hinton broth, FIG. 14): ability to kill; concentration killing P. aeruginosa (Pseudomonas aeruginosa; strain not stated): 1 µg/mL
3 | GWKKWFNRAKKVGKTVGGLAVDHYL-NH2 [NRC-12] | 2 | 2 | 2 | 8 | 2 | broad spectrum of antimicrobial activity | 4 | 8 | 1 | 8 | – | 16 | 2 | 4 | ability to kill C. albicans (Candida albicans): ability to kill
4 | FFRLLFHGVHHVGKIKPRA-NH2 [NRC-10] | 32 | 16 | 32 | 32 | 32 | poor or no observed activities | >64 | >64 | 8 | 32 | – | 64 | >64 | 32 | –
5 | GFWGKLFKLGLHGIGLLHLHL-NH2 [NRC-15] | 8 | 4 | 16 | 4 | 8 | broad spectrum of antimicrobial activity | 16 | 16 | 4 | 8 | 4 | 4 | 8 | 8 | ability to kill methicillin-resistant S. aureus [14]: ability to kill
